The data set in a line: Comparison of water solubilities of haptens, modified haptens and gentamicin reaction products. The class given is physicochemical. From the text: In der Tabelle III werden die Wasserlöslichkeiten der Haptene Phenobarbital und Diphenylhydantoin in unveränderter Form, in modifizierter Form (carboxyliert bzw. aminiert) und in der sogenannten konjugierten Form, nämlich als Umsetzungsprodukt mit Gentamicin gegenübergestellt. Hieraus ergibt sich, daß die Haptene in unveränderter und in modifizierter Form hydrophob sind (Die Unlöslichkeit in Wasser ist ein Maß für die Hydrophobie einer Verbindung). Mit steigender Unlöslichkeit der Verbindungen in Wasser steigt die Hydrophobie und die Wahrscheinlichkeit, daß sie an die Oberfläche gebunden werden, wobei durch die unspezifischen Bindungen große Ungenauigkeiten in der Immunofluoreszenz-Bestimmungsmethode verursacht werden. Wie aus der Tabelle III weiterhin ersichtlich, erhält man ein lösliches, d.h. hydrophiles Produkt, wenn man ein hydrophobes Hapten wie Phenobarbital oder Diphenylhydantoin mit einer hydrophilen Verbindung wie Gentamicin verbindet. Derartige Produkte werden nicht als solche an die feste Oberfläche gebunden.

Where two headings read alike, the source gives them in different places.

Turning to `O=C1NC(=O)C(c2ccccc2)(c2ccccc2)N1` [Diphenyl-hydantoin, Diphenylhydantoin], the Wasserlöslichkeiten result was “unlöslich”.
Regarding `CCC1(c2ccccc2)C(=O)NC(=O)NC1=O` [Phenobar-bital, Phenobarbital], the Wasserlöslichkeiten entry (in water, insolubility is taken as a measure of hydrophobicity) was “unlöslich”.

The record behind these values is EP0047459A2, “Fluorescent reagent and immunofluorescent determination method” (INTERNATIONAL DIAGNOSTIC TECHNOLOGY, INC., priority 1980, dated 1982).
